Assay [1] addresses Cbl-b (Homo sapiens (Human), UniProt Q13191). As to the kind of experiment: Cbl-b probe displacement HTRF binding assay. The following applies: 0.4 nM biotinylated Cbl-b, 150 nM BODIPY probe. Here is the method:
The affinity with which compounds of the present disclosure bind to Cbl-b was assessed using probe displacement homologous time resolved fluorescence (HTRF) assays. The assays used a BODIPY™ conjugated probe (Example 54 from WO 2020264398) and biotinylated Cbl-b. The assays were performed in assay buffer consisting of 20 mM Hepes, 150 mM NaCl, 0.01% Triton X-100, 0.5 mM TCEP, 0.01% BSA. On the day of the assay, a 20 point, 1:2 master serial dilution of each compound was prepared in DMSO to span a final concentration range of 10 μM to 0 nM. Two hundred nanoliters of diluted compound was added to each well of a 384-well plate. Fifteen microliters of biotinylated-Cbl-b resuspended in assay buffer were added to each well and the plate incubated for 60 minutes at room temperature prior to addition of 5 μL of BODIPY™ probe in assay buffer. Final assay conditions included 0.4 nM of Cbl-b and 150 nM of BODIPY™ probe. After a further 15 minutes of incubation at room temperature, 5 μl of Streptavidin-Terbium cryptate reagent at 5-fold final concentration was added to each well of the 384-well plate. Binding of a probe to Cbl-b results in an increase of HTRF signal. HTRF signal was measured by Envision plate reader, while competition of a compound of the present disclosure with probe results in a decrease of signal. Percentage maximum activity in each test well was calculated based on DMSO (maximum activity, 0% displacement) and no protein control wells (baseline activity, 100% displacement). Binding affinity was determined from a dose response curve fitted using a standard four parameter fit equation. See Table 3 for data for compounds (Cbl-b Binding (IC50)).
In general terms: In TR-FRET formats the signal depends on donor and acceptor labels being close together.

Assay [2] concerns Jurkat cells. As to the kind of experiment: IL-2 secretion assay in CD3/CD28-activated Jurkat cells (AlphaLISA). Format: cell-based, human. The following applies: CD3/CD28 activation, 24 h. Here is the method: Certain compounds were also evaluated in an IL-2 secretion assay. On the day of the assay, a 16 point, 1:2 master serial dilution of each compound was prepared in Opti-MEM to span a final concentration range of […]. Assays were set up in CORNING® tissue culture-treated 384-well microplates containing 60 nL of each dilution. Jurkat cells grown in RPMI-1640 supplemented with 10% FBS, 1% Glutamax, and 1% Pen/Strep were collected, resuspended in Opti-MEM. 50,000 cells/well and added to the compound plates. After a short spin (1200 rpm for 1 min), the plates were incubated at 37° C. for 1 hour. The cells were activated by adding 15 μL of IMMUNOCULT™ Human CD3/CD28 T Cell Activator (STEMCELL Technologies) diluted in Opti-MEM. After 24 h of incubation at 37° C., aliquots of culture supernatants were transferred to OptiPlate-384 (PerkinElmer) microplates. The level of JIL-2 secretion in the supernatants was then determined using the IL-2 (human) AiphaLISA Detection Kit (PerkinElmer) according to the manufacturer's recommendations. The AiphaLISA signal was measured using an EnVision plate reader (PerkinElmer). EC50 values were determined by fitting the data to a standard 4-parameter logistic equation. See Table 3 for data for select compounds (IL-2 Secretion (EC50)).

Sequence of Cbl-b (Q13191 whole entry, species assumed): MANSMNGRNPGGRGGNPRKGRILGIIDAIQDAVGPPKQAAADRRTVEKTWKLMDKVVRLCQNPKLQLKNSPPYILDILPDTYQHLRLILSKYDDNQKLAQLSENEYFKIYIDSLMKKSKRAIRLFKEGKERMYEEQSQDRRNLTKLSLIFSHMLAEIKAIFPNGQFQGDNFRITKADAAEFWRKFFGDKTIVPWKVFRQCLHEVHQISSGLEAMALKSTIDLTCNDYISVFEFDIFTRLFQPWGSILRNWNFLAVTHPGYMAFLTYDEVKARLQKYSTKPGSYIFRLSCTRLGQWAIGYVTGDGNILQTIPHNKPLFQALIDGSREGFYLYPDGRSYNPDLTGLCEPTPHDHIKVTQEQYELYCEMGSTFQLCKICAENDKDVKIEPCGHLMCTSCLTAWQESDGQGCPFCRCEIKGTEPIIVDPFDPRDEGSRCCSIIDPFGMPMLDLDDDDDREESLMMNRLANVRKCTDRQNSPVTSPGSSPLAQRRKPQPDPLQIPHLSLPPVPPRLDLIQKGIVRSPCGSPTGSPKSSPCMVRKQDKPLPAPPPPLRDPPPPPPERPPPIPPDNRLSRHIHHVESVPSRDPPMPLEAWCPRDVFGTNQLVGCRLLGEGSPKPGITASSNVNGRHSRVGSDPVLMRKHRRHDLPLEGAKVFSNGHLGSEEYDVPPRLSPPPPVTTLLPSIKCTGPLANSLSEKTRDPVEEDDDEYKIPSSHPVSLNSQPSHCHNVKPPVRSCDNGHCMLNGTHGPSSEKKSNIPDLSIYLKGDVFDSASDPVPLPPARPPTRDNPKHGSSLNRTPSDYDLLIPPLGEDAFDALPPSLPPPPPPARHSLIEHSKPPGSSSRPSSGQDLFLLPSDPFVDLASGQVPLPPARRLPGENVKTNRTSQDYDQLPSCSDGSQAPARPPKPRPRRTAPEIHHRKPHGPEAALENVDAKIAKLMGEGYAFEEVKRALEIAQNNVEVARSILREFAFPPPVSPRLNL

In assay [1], `C[C@H]1CCCN(Cc2cc3c(C#N)cn(-c4cc(-c5ccc(F)cc5C(=O)N5CC(F)C5)cc(C5CC5)n4)c(=O)c3[nH]2)C1` [Example 21, 2-{[(S)-3-methyl-1-piperidyl]methyl}-6-(6-cyclopropyl-4-{4-fluoro-2-[(3-fluoro-1-azetidinyl)carbonyl]phenyl}-2-pyridyl)-7-oxo-1,6-dihydro-1,6-diaza-4-indenecarbonitrile] gave an IC50 of less than 100 nM. Besides, the EC50 in assay [2] (Homo sapiens) was less than 100 nM.

As to `CCN(C)C(=O)c1cc(F)ccc1-c1cc(C2CC2)nc(-n2cc(C3CC3)c3cc(CN4CCC[C@H](C)C4)[nH]c3c2=O)c1` [Example 13, N-ethyl-N-methyl2-[2-(2-{[(S)-3-methyl-1-piperidyl]methyl}-4-cyclopropyl-7-oxo-1,6-dihydro-1,6-diaza-6-indenyl)-6-cyclopropyl-4-pyridyl]-5-fluorobenzamide], in assay [1], the IC50 is less than 100 nM. Also, in assay [2] (Homo sapiens), the EC50 lay in the range of 100 to 1000 nM. In assay [1], `N#Cc1cn(-c2cc(-c3ccc(F)cc3C(=O)N3CC(F)C3)cc(C3CC3)n2)c(=O)c2[nH]c(CO)cc12` [Example 54, 6-(6-cyclopropyl-4-{4-fluoro-2-[(3-fluoro-1-azetidinyl)carbonyl]phenyl}-2-pyridyl)-2-(hydroxymethyl)-7-oxo-1,6-dihydro-1,6-diaza-4-indenecarbonitrile] showed an IC50 of less than 100 nM. Moreover, the half-maximal effective concentration (EC50) in assay [2] (Homo sapiens) is 100 to 1000 nM. In the same order, the values of `COC[C@H](C)NCc1cc2ncn(-c3cc(-c4ccc(F)cc4C(=O)N4CC(F)(F)C4)cc(C4CC4)n3)c(=O)c2[nH]1` [Example 34, 3-[6-cyclopropyl-4-[2-(3,3-difluoroazetidine-1-carbonyl)-4-fluorophenyl]pyridin-2-yl]-6-[[[(2S)-1-methoxypropan-2-yl]amino]methyl]-5H-pyrrolo[3,2-d]pyrimidin-4-one] are less than 100 nM and less than 100 nM. On to `Cc1cn(-c2cc(-c3ccc(F)cc3C(=O)N3CC(F)C3)cc(C3CC3)n2)c(=O)c2[nH]c([C@@H]3CCCN3)nc12` [Example 50, 5-[6-cyclopropyl-4-[4-fluoro-2-(3-fluoroazetidine-1-carbonyl)phenyl]pyridin-2-yl]-7-methyl-2-[(2S)-pyrrolidin-2-yl]-3H-imidazo[4,5-c]pyridin-4-one], for which the IC50 in assay [1] lay within 100 to 1000 nM. Also, in assay [2] (Homo sapiens), the half-maximal effective concentration (EC50) was more than 5000 nM.

In assay [1], `C[C@H]1CCCN(Cc2cc3c(C4CC4)cn(-c4cc(-c5ccc(F)cc5C(=O)N(C)c5ccccc5)cc(C5CC5)n4)c(=O)c3[nH]2)C1` [Example 8, N-methyl-N-phenyl-2-[2-(2-{[(S)-3-methyl-1-piperidyl]methyl}-4-cyclopropyl-7-oxo-1,6-dihydro-1,6-diaza-6-indenyl)-6-cyclopropyl-4-pyridyl]-5-fluorobenzamide] registered an IC50 of 100 to 1000 nM. Besides, the concentration giving a half-maximal response (EC50) in assay [2] (Homo sapiens) is more than 5000 nM. In the same order, the values of `CC1CCN1C(=O)c1cc(F)ccc1-c1cc(C2CC2)nc(-n2cc(C3CC3)c3cc(CN4CCC[C@H](C)C4)[nH]c3c2=O)c1` (stereo partly drawn) [Example 15, 2-{[(S)-3-methyl-1-piperidyl]methyl}-4-cyclopropyl-6-(6-cyclopropyl-4-{4-fluoro-2-[(2-methyl-1-azetidinyl)carbonyl]phenyl}-2-pyridyl)-1,6-dihydro-1,6-diaza-7-indenone] are less than 100 nM and 100 to 1000 nM. Take `COCCNCc1cc2ncn(-c3cc(-c4ccc(F)cc4C(=O)N4CC(F)(F)C4)cc(C4CC4)n3)c(=O)c2[nH]1` [Example 44, 6-(6-cyclopropyl-4-{2-[(3,3-difluoro-1-azetidinyl)carbonyl]-4-fluorophenyl}-2-pyridyl)-2-[(2-methoxyethylamino)methyl]-1,6-dihydro-1,4,6-triaza-7-indenone]: the IC50 in assay [1] is less than 100 nM. The EC50 in assay [2] (Homo sapiens) is less than 100 nM. On to `C[C@H]1CCCN(Cc2cc3c(C4CC4)cn(-c4cc(-c5ccc(F)cc5C(=O)NCC(F)(F)F)cc(C5CC5)n4)c(=O)c3[nH]2)C1` [Example 12, N-2,2,2-trifluoroethyl2-[2-(2-{[(S)-3-methyl-1-piperidyl]methyl}-4-cyclopropyl-7-oxo-1,6-dihydro-1,6-diaza-6-indenyl)-6-cyclopropyl-4-pyridyl]-5-fluorobenzamide], for which the IC50 in assay [1] was 100 to 1000 nM. In assay [2] (Homo sapiens), this compound gave an EC50 of 100 to 1000 nM.

`C[C@H]1CCCN(Cc2cc3ncn(-c4cc(-c5ccc(F)cc5C(=O)N5CC(F)C5)cc(C5CC5)n4)c(=O)c3[nH]2)C1` [Example 25, 2-{[(S)-3-methyl-1-piperidyl]methyl}-6-(6-cyclopropyl-4-{4-fluoro-2-[(3-fluoro-1-azetidinyl)carbonyl]phenyl}-2-pyridyl)-1,6-dihydro-1,4,6-triaza-7-indenone]: in assay [1], the IC50 is less than 100 nM. The EC50 in assay [2] (Homo sapiens) was less than 100 nM. Consider `O=C(c1cc(F)ccc1-c1cc(C2CC2)nc(-n2cnc3cc(CNCCC(F)(F)F)[nH]c3c2=O)c1)N1CC(F)(F)C1` [Example 39, 3-[6-cyclopropyl-4-[2-(3,3-difluoroazetidine-1-carbonyl)-4-fluorophenyl]pyridin-2-yl]-6-[(3,3,3-trifluoropropylamino)methyl]-5H-pyrrolo[3,2-d]pyrimidin-4-one], for which the IC50 in assay [1] is less than 100 nM. This compound showed an EC50 in assay [2] (Homo sapiens) of less than 100 nM. In assay [1], `Cc1cn(-c2cc(-c3ccc(F)cc3C(=O)N3CC(F)C3)cc(C3CC3)n2)c(=O)c2[nH]c([C@H]3CCCN3)nc12` [Example 49, 5-[6-cyclopropyl-4-[4-fluoro-2-(3-fluoroazetidine-1-carbonyl)phenyl]pyridin-2-yl]-7-methyl-2-[(2R)-pyrrolidin-2-yl]-3H-imidazo[4,5-c]pyridin-4-one] yielded a half-inhibitory concentration (IC50) of less than 100 nM. Also, the EC50 in assay [2] (Homo sapiens) is more than 5000 nM.

In assay [1], `CCN(CC)C(=O)c1cc(F)ccc1-c1cc(C2CC2)nc(-n2cc(C3CC3)c3cc(CN4CCC[C@H](C)C4)[nH]c3c2=O)c1` [Example 5, N,N-diethyl2-[2-(2-{[(S)-3-methyl-1-piperidyl]methyl}-4-cyclopropyl-7-oxo-1,6-dihydro-1,6-diaza-6-indenyl)-6-cyclopropyl-4-pyridyl]-5-fluorobenzamide] yielded an IC50 of less than 100 nM. Also, the EC50 in assay [2] (Homo sapiens) lay within 100 to 1000 nM. On the same counts, the results for `COC1CN(C(=O)c2cc(F)ccc2-c2cc(C3CC3)nc(-n3cc(C4CC4)c4cc(CN5CCC[C@H](C)C5)[nH]c4c3=O)c2)C1` [Example 11, 2-{[(S)-3-methyl-1-piperidyl]methyl}-4-cyclopropyl-6-(6-cyclopropyl-4-{4-fluoro-2-[(3-methoxy-1-azetidinyl)carbonyl]phenyl}-2-pyridyl)-1,6-dihydro-1,6-diaza-7-indenone] are less than 100 nM and 100 to 1000 nM. In the same order, the values of `COCCN(C)Cc1cc2ncn(-c3cc(-c4ccc(F)cc4C(=O)N4CC(F)(F)C4)cc(C4CC4)n3)c(=O)c2[nH]1` [Example 38, 3-[6-cyclopropyl-4-[2-(3,3-difluoroazetidine-1-carbonyl)-4-fluorophenyl]pyridin-2-yl]-6-[[2-methoxyethyl(methyl)amino]methyl]-5H-pyrrolo[3,2-d]pyrimidin-4-one] are less than 100 nM and 100 to 1000 nM. In the case of `CO[C@@H](C)CN(C)Cc1cc2ncn(-c3cc(-c4ccc(F)cc4C(=O)N4CC(F)(F)C4)cc(C4CC4)n3)c(=O)c2[nH]1` [Example 40, 3-[6-cyclopropyl-4-[2-(3,3-difluoroazetidine-1-carbonyl)-4-fluorophenyl]pyridin-2-yl]-6-[[[(2S)-2-methoxypropyl]-methylamino]methyl]-5H-pyrrolo[3,2-d]pyrimidin-4-one], the IC50 in assay [1] was less than 100 nM. In assay [2], `COCCNCc1cc2ncn(-c3cc(-c4ccc(F)cc4C(=O)N4CC(F)(F)C4)cc(C4CC4)c3)c(=O)c2[nH]1` [Example 42, 6-{5-cyclopropyl-2′-[(3,3-difluoro-1-azetidinyl)carbonyl]-4′-fluoro-3-biphenylyl}-2-[(2-methoxyethylamino)methyl]-1,6-dihydro-1,4,6-triaza-7-indenone] returned an EC50 of less than 100 nM.

What is called IC50 is the midpoint of a concentration-inhibition curve. A higher IC50 goes with a need for much substance. The term EC50 denotes the concentration needed to bring the measured effect to its halfway point. The low end stands for higher potency in that assay, the high end for lower potency in that assay.

For the origin of these results see patent US20240425497A1, “Cbl-b Inhibitors and Methods of Use Thereof” (ARCUS BIOSCIENCES, INC., priority 2023, published 2024).
